Measured values reported in ChEMBL document CHEMBL2177083, “Enhanced in vitro biological activity of synthetic 2-(2-pyridyl) ethyl isothiocyanate compared to natural 4-(methylsulfinyl) butyl isothiocyanate” (J Med Chem, 2012).
The source made the active and inactive calls. The calls are words filed in the database; no cut-off is given here.

Key:
PC-3 [1] = test: Increase in glycolysis/gluconeogenesis related gene expression in human PC3 cells at 10 uM incubated for 8 hrs by Affymetrix human exon array relative to untreated control; format: functional
PC-3 [2] = test: Increase in TGF-beta signaling pathway related gene expression in human PC3 cells at 10 uM incubated for 8 hrs by Affymetrix human exon array relative to untreated control; format: functional
PC-3 [3] = test: Increase in lysine degradation related gene expression in human PC3 cells at 10 uM incubated for 8 hrs by Affymetrix human exon array relative to untreated control; format: functional
PNT1A [4] = test: Increase in systemic lupus erythematosus related gene expression in human PNT1A cells at 10 uM incubated for 8 hrs by Affymetrix human exon array relative to untreated control; format: functional
PC-3 [5] = test: Increase in pyrimidine metabolism related gene expression in human PC3 cells at 10 uM incubated for 8 hrs by Affymetrix human exon array relative to untreated control; format: functional
PC-3 [6] = test: Increase in prostate cancer related gene expression in human PC3 cells at 10 uM incubated for 8 hrs by Affymetrix human exon array relative to untreated control; format: functional
PC-3 [7] = test: Increase in chronic myeloid leukemia related gene expression in human PC3 cells at 10 uM incubated for 8 hrs by Affymetrix human exon array relative to untreated control; format: functional
PNT1A [8] = test: Increase in apoptosis related gene expression in human PNT1A cells at 10 uM incubated for 8 hrs by Affymetrix human exon array relative to untreated control; format: functional
PC-3 [9] = test: Increase in cell cycle related gene expression in human PC3 cells at 10 uM incubated for 8 hrs by Affymetrix human exon array relative to untreated control; format: functional
PC-3 [10] = test: Increase in ABC transporters related gene expression in human PC3 cells at 10 uM incubated for 8 hrs by Affymetrix human exon array relative to untreated control; format: functional
Caco-2 = test: Cytotoxicity against human Caco2 cells incubated for 24 hrs by WST1 dye reduction assay; details: Caco-2, 24 h
PC-3 [11] = test: Increase in p53 signaling pathway related gene expression in human PC3 cells at 10 uM incubated for 8 hrs by Affymetrix human exon array relative to untreated control; format: functional
PC-3 [12] = test: Increase in glioma related gene expression in human PC3 cells at 10 uM incubated for 8 hrs by Affymetrix human exon array relative to untreated control; format: functional
PC-3 [13] = test: Increase in apoptosis gene expression in human PC3 cells at 10 uM incubated for 8 hrs by Affymetrix human exon array relative to untreated control; format: functional
PC-3 [14] = test: Increase in small cell lung cancer related gene expression in human PC3 cells at 10 uM incubated for 8 hrs by Affymetrix human exon array relative to untreated control; format: functional
PC-3 [15] = test: Increase in base excision repair related gene expression in human PC3 cells at 10 uM incubated for 8 hrs by Affymetrix human exon array relative to untreated control; format: functional
PC-3 [16] = test: Increase in homologous recombination related gene expression in human PC3 cells at 10 uM incubated for 8 hrs by Affymetrix human exon array relative to untreated control; format: functional
PC-3 [17] = test: Increase in nucleotide excision repair related gene expression in human PC3 cells at 10 uM incubated for 8 hrs by Affymetrix human exon array relative to untreated control; format: functional
PC-3 [18] = test: Increase in colorectal cancer related gene expression in human PC3 cells at 10 uM incubated for 8 hrs by Affymetrix human exon array relative to untreated control; format: functional
[19] = Induction of p21 protein expression in human PNT1A cells at 10 uM incubated for 8 hrs by Western blotting; format: cell-based
PC-3 [20] = test: Increase in alanine and aspartate metabolism related gene expression in human PC3 cells at 10 uM incubated for 8 hrs by Affymetrix human exon array relative to untreated control; format: functional
PNT1A [21] = test: Increase in glutathione metabolism related gene expression in human PNT1A cells at 10 uM incubated for 8 hrs by Affymetrix human exon array relative to untreated control; format: functional
PC-3 [22] = test: Increase in ErbB signaling pathway related gene expression in human PC3 cells at 10 uM incubated for 8 hrs by Affymetrix human exon array relative to untreated control; format: functional
[23] = Binding affinity to insulin B chain N-terminal pentapeptide assessed as compound-insulin adduct formation by LC-MS method
PC-3 [24] = test: Increase in mismatch repair related gene expression in human PC3 cells at 10 uM incubated for 8 hrs by Affymetrix human exon array relative to untreated control; format: functional
PC-3 [25] = test: Induction of p21 protein expression in human PC3 cells at 10 uM incubated for 8 hrs by Western blotting in presence of 50 uM PI3K inhibitor LY294002 relative to untreated control; format: functional
PC-3 [26] = test: Increase in aminoacyl-tRNA biosynthesis related gene expression in human PC3 cells at 10 uM incubated for 8 hrs by Affymetrix human exon array relative to untreated control; format: functional
PNT1A [27] = test: Increase in glycine, serine, and threonine metabolism related gene expression in human PNT1A cells at 10 uM incubated for 8 hrs by Affymetrix human exon array relative to untreated control; format: functional
[28] = Binding affinity to insulin A chain N-terminal pentapeptide assessed as compound-insulin adduct formation by LC-MS method
PC-3 [29] = test: Increase in DNA replication related gene expression in human PC3 cells at 10 uM incubated for 8 hrs by Affymetrix human exon array relative to untreated control; format: functional
DU-145 = test: Cytotoxicity against human DU145 cells incubated for 24 hrs by WST1 dye reduction assay; details: DU-145, 24 h
PC-3 [30] = test: Cytotoxicity against human PC3 cells incubated for 24 hrs by WST1 dye reduction assay; details: PC-3, 24 h
[31] = Antiproliferative activity against human PNT1A cells at 50 uM incubated for 24 hrs by BrdU incorporation assay; format: cell-based
PC-3 [32] = test: Increase in systemic lupus erythematosus related gene expression in human PC3 cells at 10 uM incubated for 8 hrs by Affymetrix human exon array relative to untreated control; format: functional
HepG2 = test: Cytotoxicity against human HepG2 cells incubated for 24 hrs by WST1 dye reduction assay; details: HepG2, 24 h
PC-3 [33] = test: Increase in epithelial cell signaling in Helicobacter pylori infection related gene expression in human PC3 cells at 10 uM incubated for 8 hrs pre-treated for 1 hr with 50 uM PI3K inhibitor LY294002 by Affymetrix human exon array relative to untreated control; format: functional
PC-3 [34] = test: Increase in one carbon pool by folate related gene expression in human PC3 cells at 10 uM incubated for 8 hrs by Affymetrix human exon array relative to untreated control; format: functional
PC-3 [35] = test: Inhibition of cell proliferation of human PC3 cells at 10 uM incubated for 24 hrs by BrdU incorporation assay; format: functional; details: PC-3, 24 h
PNT1A [36] = test: Increase in axon guidance related gene expression in human PNT1A cells at 10 uM incubated for 8 hrs by Affymetrix human exon array relative to untreated control; format: functional
PNT1A [37] = test: Increase in cytokine-cytokine receptor interaction related gene expression in human PNT1A cells at 10 uM incubated for 8 hrs by Affymetrix human exon array relative to untreated control; format: functional
PC-3 [38] = details: Homo sapiens, 25 uM
Description: Inhibition of cell proliferation of human PC3 cells at 25 uM incubated for 24 hrs by BrdU incorporation assay

[39] = Induction of p21 protein expression in human PNT1A cells at 50 uM incubated for 8 hrs by Western blotting; format: cell-based
PC-3 [40] = test: Induction of p21 protein expression in human PC3 cells at 50 uM incubated for 8 hrs by Western blotting relative to untreated control; format: functional, cell-based

S=C=NCCc1ccccn1
fold change (FC) (PC-3 [1]): 1.6 | fold change (FC) (PC-3 [2]): 1.5 | fold change (FC) (PC-3 [3]): 1.8 | fold change (FC) (PNT1A [4]): 3.6 | fold change (FC) (PC-3 [5]): 1.6 | fold change (FC) (PC-3 [6]): 1.9 | fold change (FC) (PC-3 [7]): 1.9 | fold change (FC) (PNT1A [8]): 2.5 | fold change (FC) (PC-3 [9]): 2.6 | fold change (FC) (PC-3 [10]): 1.6 | IC50 (Caco-2): 15.2 µM | fold change (FC) (PC-3 [11]): 2.1 | fold change (FC) (PC-3 [12]): 1.9 | fold change (FC) (PC-3 [13]): 1.9 | fold change (FC) (PC-3 [14]): 1.6 | fold change (FC) (PC-3 [15]): 2.1 | fold change (FC) (PC-3 [16]): 2.4 | fold change (FC) (PC-3 [17]): 1.8 | fold change (FC) (PC-3 [18]): 1.5 | Activity [19]: Non-toxic | fold change (FC) (PC-3 [20]): 2 | fold change (FC) (PNT1A [21]): 2.8 | fold change (FC) (PC-3 [22]): 1.6 | Activity [23]: Active | fold change (FC) (PC-3 [24]): 2.6 | fold change (FC) (PC-3 [25]): 8 | fold change (FC) (PC-3 [26]): 1.8 | fold change (FC) (PNT1A [27]): 3.1 | Activity [28]: Active | fold change (FC) (PC-3 [29]): 3.1 | IC50 (DU-145): 4.44 µM | IC50 (PC-3 [30]): 12.8 µM | Activity [31]: Non-toxic | fold change (FC) (PC-3 [32]): 1.8 | IC50 (HepG2): 15.3 µM | fold change (FC) (PC-3 [33]): 1.6 | fold change (FC) (PC-3 [34]): 2.8 | inhibition at 10 µM (PC-3 [35]): > 80% | fold change (FC) (PNT1A [36]): 1.9

C[S+]([O-])CCCCN=C=S (stereo not drawn) [SULFORAPHANE]
fold change (FC) (PNT1A [37]): 3.3 | fold change (FC) (PNT1A [4]): 4.3 | fold change (FC) (PNT1A [8]): 4.8 | IC50 (Caco-2): 79.8 µM | Activity [19]: Non-toxic | inhibition (PC-3 [38]): Active | Activity [23]: Active | Activity [28]: Active | IC50 (DU-145): 13.8 µM | IC50 (PC-3 [30]): 32.4 µM | Activity [31]: Non-toxic | IC50 (HepG2): 24.9 µM

O=c1cc(N2CCOCC2)oc2c(-c3ccccc3)cccc12 [LY-294002]
Activity [39]: Toxic | Activity (PC-3 [40]): Active
